Results from US7745439B2, “Indene derivatives and process for the preparation thereof” (Korea Research Institute of Chemical Technology, priority 2004, dated 2010).
Like-named read-outs stand apart in the source and are kept apart here. Each block holds one compound with its values, some of them ahead of it.

Tests used:
human PPARγ = target: T1, human PPARγ (Homo sapiens, UniProt P37231); test: PPARγ activation test (GAL-4/luciferase reporter in NIH/3T3 cell); format: cell-based; settings: luciferase activity, 24 hrs incubation
T1 construct: expressed in transfected cells; host or cells: NIH/3T3
T1 sequence (P37231 238-503 limits assumed): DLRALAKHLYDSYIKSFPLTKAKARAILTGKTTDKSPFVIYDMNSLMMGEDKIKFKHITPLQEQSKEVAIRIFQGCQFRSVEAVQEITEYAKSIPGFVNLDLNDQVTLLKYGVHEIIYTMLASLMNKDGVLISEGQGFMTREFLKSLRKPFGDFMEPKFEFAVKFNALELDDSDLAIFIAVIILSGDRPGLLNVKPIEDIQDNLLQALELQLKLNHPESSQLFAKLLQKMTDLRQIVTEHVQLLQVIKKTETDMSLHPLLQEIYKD
Protocol: The activity for PPARγ activation was examined as follows.
The vector fused with ligand binding domain of a human PPARγ gene and DNA binding site of a yeast GAL-4 gene, and luciferase reporter vector were simultaneously transfected in NIH/3T3 cell. The cells were cultured for 24 hrs. The solution containing the cells at a concentration of 2×10^4 cells/well was placed on a 96-well plate. Then, each of the test compounds of the present invention and the control group without test compounds was added thereto. After incubating for 24 hrs, the cells were subjected to lysis.

C57/BL6J mice [1] = test: Adverse side effects check (weight, heart weight, liver weight, GPT/GOT) in high fat diet C57/BL6J mice; settings: for GOT / GPT / Heart Weight / Liver Weight / Weight: high fat diet C57/BL6J mice
Protocol: (§2) To check possible adverse side effects caused by the administration of the compound, the weight, heart weight and liver weight of each mouse were measured. GPT and GOT values were also calculated by employing a kit available in the market.

ob/ob mice [2] = settings: relative to control
Protocol: The effectiveness in lowering blood glucose level of the inventive compound was examined using ob/ob mice (male, 8-9 week old), a type 2 diabetes model animals which expresses signs of hyperglycemia and hyperinsulinemia, bred in house facilities of Korea Research Institute of Chemical Technology.
(§1) The resulting solution was intraperitoneally administered to the mice at a dose of 50 mg/kg, once a day for 5 days, or orally administered to the mice, at a dose of 100 mg/kg, twice a day for 14 days. Days 1, 3 and 5 were selected for intraperitoneal administration, and days 5, 10 and 14, for oral administration, to collect blood samples for measuring the blood glucose levels. […] Upon the completion of the oral administration for 14 days, the mice were fasted for 16 hrs to perform OGTT (Oral Glucose Tolerance Test) to determine the changes in insulin sensitivity induced by the oral administration. After administrating glucose to the mice at a dose of 2 g/kg orally, blood samples were collected at 0, 15, 30 60 and 120 minutes to measure blood glucose levels.

C57/BL6J mice [3] = settings: high fat diet C57/BL6J mice, after oral administration for 14 days once a day
Protocol: as §1

ob/ob mice [4] = settings: total amount of blood glucose over 120 minutes after glucose 2 g/kg orally, after 14 days oral administration
Protocol: as §1

C57/BL6J mice [5] = tested on: C57/BL6J mice
Protocol: as §2

[6] = high fat diet C57/BL6J mice, oral administration for 14 days once a day

SMILES: CCOC(=O)C1=C(c2ccccc2)c2ccc(OCCCc3ccccc3)cc2C1(O)c1ccccc1 (centres unmarked) [Compound 7, 1-hydroxy-1,3-diphenyl-6-(3-phenyl-propoxy)-1H-indene-2-carboxylic acid ethyl ester]
EC50 (human PPARγ): 25 nM

SMILES: CCOC(=O)C1=C(c2ccccc2)c2ccc(OCCN3CCOCC3)cc2C1(O)c1ccccc1 (centres unmarked) [Compound 8, 1-hydroxy-6-(2-morpholine-4-yl-ethoxy)-1,3-diphenyl-1H-indene-2-carboxylic acid ethyl ester]
melting point: 121 to 123 °C
EC50 (human PPARγ): 75 nM

SMILES: CCOC(=O)C1=C(c2ccccc2)c2ccc(OCCc3ccccn3)cc2C1(O)c1ccccc1 (centres unmarked) [Compound 10, 1-hydroxy-1,3-diphenyl-6-(2-pyridine-2-yl-ethoxy)-1H-indene-2-carboxylic acid ethyl ester]
EC50 (human PPARγ): 150 nM

SMILES: N#CC1=C(c2ccccc2)c2ccc(OCCCc3ccccc3)cc2C1(O)c1ccccc1 (centres unmarked) [Compound 11, 1-hydroxy-1,3-diphenyl-6-(3-phenyl-propoxy)-1H-indene-2-carbonitrile]
EC50 (human PPARγ): 100 nM

SMILES: CCOC(=O)C1=C(c2ccccc2)c2ccc(OCCCc3ccccc3)cc2C1NC(C)=O (centres unmarked) [Compound 26, 1-acetylamino-3-phenyl-6-(3-phenyl-propoxy)-1H-indene-2-carboxylic acid ethyl ester]
EC50 (human PPARγ): 40 nM

SMILES: CCOC(=O)C1=C(c2ccccc2)c2ccc(OC)cc2C1NC1CCCCC1 (centres unmarked) [Compound 32, 1-cyclohexyl amino-6-methoxy-3-phenyl-1H-indene-2-carboxylic acid ethyl ester]
EC50 (human PPARγ): 250 nM

SMILES: CN(CCOc1ccc(CC2SC(=O)NC2=O)cc1)c1ccccn1 (centres unmarked) [Rosiglitazone, reference compound]
GOT (C57/BL6J mice [1]): 40 ± 7.1 karmen
GPT (C57/BL6J mice [1]): 79 ± 8.3/ karmen
Heart Weight (C57/BL6J mice [1]): 0.133 ± 0.004 g
Liver Weight (C57/BL6J mice [1]): 1.35 ± 0.14 g
Weight (C57/BL6J mice [1]): 40 ± 1.6 g

SMILES: CCOC(=O)C1=C(c2ccccc2)c2ccc(OCCN3CCOCC3)cc2C1(O)c1ccccc1 (centres unmarked) [The Inventive Compound, 1-hydroxy-6-(2-morpholine-4-yl-ethoxy)-1,3-diphenyl-1H-indene-2-carbo-xylic acid ethyl ester]
Side effects (summary in words) (C57/BL6J mice [1]; administered orally or intraperitoneally): no side effects such as weight gain, hepatotoxicity or cardiotoxicity
GOT (C57/BL6J mice [1]): 35 ± 6.2 karmen
GPT (C57/BL6J mice [1]): 47 ± 6.5/ karmen
Heart Weight (C57/BL6J mice [1]): 0.117 ± 0.012 g
Liver Weight (C57/BL6J mice [1]): 1.22 ± 0.10 g
Weight (C57/BL6J mice [1]): 37 ± 2.0 g
Extent of Inhibition (%) of blood glucose level (ob/ob mice [2]; Intraperitoneal Administration (50 mg/kg/day), once a day for 5 days): 32.0%
Extent of Inhibition (%) of blood glucose level (ob/ob mice [2]; Oral Administration (100 mg/kg/day), 14 days): 23.7%
Inhibition Ratio (%), Oral Glucose Tolerance Test (Glucose) (C57/BL6J mice [3]): 23.8%
Inhibition Ratio (%), Oral Glucose Tolerance Test (Insulin) (C57/BL6J mice [3]): 56.2%
Extent of Inhibition (%), Oral Glucose Tolerance Test (Blood Glucose) (ob/ob mice [4]): 10.2%
Effect in lowering blood glucose and insulin levels (summary in words) (C57/BL6J mice [5]; administered orally or intraperitoneally, Tables 6, 7 and 8): excellent effect in lowering both blood glucose and insulin levels
Inhibition Ratio (%), Blood Insulin level (C57/BL6J mice [5]; [6]): 44.6%
Inhibition Ratio (%), Blood glucose level (C57/BL6J mice [5]; [6]): 30.0%

Next, values leading:

EC50 (human PPARγ): 250 nM
SMILES: CCOC(=O)C1=C(c2ccccc2)c2ccc(OC)cc2C1(O)C(C)C (centres unmarked) [Compound 3, 1-hydroxy-1-isopropyl-6-methoxy-3-phenyl-1H-indene-2-carboxylic acid ethyl ester]

EC50 (human PPARγ): 230 nM
SMILES: CCOC(=O)C1=C(c2ccccc2)c2ccc(OC)cc2C1(C)O (centres unmarked) [Compound 4, 1-hydroxy-6-methoxy-1-methyl-3-phenyl-1H-indene-2-carboxylic acid ethyl ester]

EC50 (human PPARγ): 95 nM
SMILES: CCOC(=O)C1=C(c2ccccc2)c2ccc(OC)cc2C1(O)Cc1ccccc1 (centres unmarked) [Compound 5, 1-benzyl-1-hydroxy-6-methoxy-3-phenyl-1H-indene-2-carboxylic acid ethyl ester]

EC50 (human PPARγ): 50 nM
SMILES: CCOC(=O)C1=C(c2ccccc2)c2ccc(OC)cc2C1(O)C1CCCCC1 (centres unmarked) [Compound 6, 1-cyclohexyl-1-hydroxy-6-methoxy-3-phenyl-1H-indene-2-carboxylic acid ethyl ester]

EC50 (human PPARγ): 230 nM
SMILES: COc1ccc2c(c1)C(O)(Cc1ccccc1)C(C(=O)O)=C2c1ccccc1 (centres unmarked) [Compound 15, 1-benzyl-1-hydroxy-6-methoxy-3-phenyl-1H-indene-2-carboxylic acid]

EC50 (human PPARγ): 45 nM
SMILES: CCOC(=O)C1=C(c2ccccc2)c2ccc(OC)cc2C1OC (centres unmarked) [Compound 18, 1,6-dimethoxy-3-phenyl-1H-indene-2-carboxylic acid ethyl ester]

EC50 (human PPARγ): 20 nM
SMILES: CCOC(=O)C1=C(c2ccccc2)c2ccc(OC)cc2C1OCC (centres unmarked) [Compound 19, 1-ethoxy-6-methoxy-3-phenyl-1H-indene-2-carboxylic acid ethyl ester]

EC50 (human PPARγ): 50 nM
SMILES: CCOC(=O)C1=C(c2ccccc2)c2ccc(OC)cc2C1NC(C)=O (centres unmarked) [Compound 24, 1-acetylamino-6-methoxy-3-phenyl-1H-indene-2-carboxylic acid ethyl ester]

EC50 (human PPARγ): 12 nM
SMILES: CCOC(=O)C1=C(c2ccccc2)c2ccc(OC)cc2C1NC(=O)CC (centres unmarked) [Compound 25, 6-methoxy-3-phenyl-1-propionylamino-1H-indene-2-carboxylic acid ethyl ester]
